Patent US20240425523A1, “Compounds for the Degradation of EGFR Kinase” (Beigene Switzerland GMBH, priority 2023, published 2024)

Columns and labels:
Assay type in all cases: cell-based
[1] = target: p-EGFR Del19/C797S (H1975-clone #23 cells) (Homo sapiens, UniProt P00533); test: Cell p-EGFR inhibition assay, HTRF, H1975-clone#23 (DEL19/C797S) cells; details: 16 h treatment; for Imax (%): maximum percentage of pEGFR inhibition; for IC50: pEGFR inhibition
Method in brief: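 Phospho-EGFR read by overnight HTRF on lysates, normalized to DMSO-treated high control; IC50, Hill slope and Imax fitted. Compounds were applied for 16 h (10 uM top, 5-fold steps, 8 doses) to an H1975 single clone carrying only exogenous Del19/C797S EGFR after sgRNA knockout of endogenous copies.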

[2] = target: T1, EGFR-L858R/C797S (H1975-clone #8 cells) (Homo sapiens, UniProt P00533, C797S/L858R); test: Cell degradation of EGFR, HTRF assay, H1975-clone#8 (L858R/C797S) cells; details: 16 h treatment; for DC50: EGFR degradation; for Dmax: maximum percentage of degradation
T1 construct: expressed in transfected cells; host or cells: H1975 (endogenous EGFR knocked out, clone #8)

[3] = target: T2, p-EGFR L858R (BaF3-L858R cells) (Homo sapiens, UniProt P00533, L858R); test: Cell p-EGFR inhibition assay, HTRF, BaF3-L858R cells; details: 16 h treatment; for Imax (%): maximum percentage of pEGFR inhibition; for IC50: pEGFR inhibition
T2 construct: host or cells: BaF3
Method in brief: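 BaF3-L858R cells treated 16 h at 37 °C, 5% CO2 with compound from 10 uM top, 5-fold dilutions, 8 doses, in 0.1% DMSO medium. Lysates read overnight by HTRF p-EGFR antibodies; IC50 fitted to four-parameter curve against DMSO high control.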

[4] = target: T3, EGFR L858R (BaF3-L858R cells) (Homo sapiens, UniProt P00533, L858R); test: Cell degradation of EGFR, HTRF assay, BaF3-L858R cells; details: 16 h treatment; for DC50: EGFR degradation; for Dmax: maximum percentage of degradation
T3 construct: host or cells: BaF3
Method in brief: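 BaF3-L858R cells treated 16 h at 37° C, 5% CO2 with compound (top 10 uM final, 5-fold, 8 doses, 0.1% DMSO). DC50 from four-parameter fit; Dmax is maximum percent degradation.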

SMILES	Imax (%) [1] [%]	IC50 [1] [nM]	DC50 [2] [nM]	Dmax [2] [%]	Imax (%) [3] [%]	IC50 [3] [nM]	DC50 [4] [nM]	Dmax [4] [%]
Cc1cc2cc(n1)-c1c(C)nn(C)c1OC[C@H]1CCC(C1)CN1/C(=N/C2=O)Nc2ccc(N3CCN(CC4CCN(c5cc(F)c([C@H]6CCC(=O)NC6=O)c(F)c5)CC4)[C@H](C)C3)cc21 [Example 134, (R)-3-(2,6-difluoro-4-(4-(((R)-2-methyl-4-((7^1R,7^3S,E)-1^1,1^3,2^6-trimethyl-3-oxo-5^2,5^3-dihydro-1^1H,5^1H-9-oxa-4-aza-5(2,1)-benzo[d]imidazola-2(2,4)-pyridina-1(4,5)-pyrazola-7(1,3)-cyclopentanacyclononaphane-5^6-yl)piperazin-1-yl)methyl)piperidin-1-yl)phenyl)piperidine-2,6-dione]	92.81	1.76	4.97	79.9	98.27	2.49	1.89	85.9
Cc1cc2cc(n1)-c1c(C)nn(C)c1OC[C@H]1CCC(C1)CN1/C(=N/C2=O)Nc2ccc(N3CCC(N(C)C4CCN(c5cc(F)c([C@H]6CCC(=O)NC6=O)c(F)c5)CC4)CC3)cc21 [Example 136, (R)-3-(2,6-difluoro-4-(4-(methyl(1-((7^1R,7^3S,E)-1^1,1^3,2^6-trimethyl-3-oxo-5^2,5^3-dihydro-1^1H,5^1H-9-oxa-4-aza-5(2,1)-benzo[d]imidazola-2(2,4)-pyridina-1(4,5)-pyrazola-7(1,3)-cyclopentanacyclononaphane-5^6-yl)piperidin-4-yl)amino)piperidin-1-yl)phenyl)piperidine-2,6-dione]	103.49	1.44	0.152	76.1	104.73	8.91	3.52	81.1
Cc1cc2cc(n1)-c1c(C)nn(C)c1OC[C@H]1CC[C@H](C1)CN1/C(=N/C2=O)Nc2ccc(N3CCC(CN(C)C4CCN(c5cc(F)c([C@H]6CCC(=O)NC6=O)c(F)c5)CC4)CC3)cc21 [Example 138, (R)-3-(2,6-difluoro-4-(4-(methyl((1-((7^1R,7^3S,E)-1^1,1^3,2^6-trimethyl-3-oxo-5^2′5^3-dihydro-1^1H,5^1H-9-oxa-4-aza-5(2,1)-benzo[d]imidazola-2(2,4)-pyridina-1(4,5)-pyrazola-7(1,3)-cyclopentanacyclononaphane-5^6-yl)piperidin-4-yl)methyl)amino)piperidin-1-yl)phenyl)piperidine-2,6-dione]	102.96	1.37	1.27	83.4	104.27	7.09	3.61	85.5
Cc1cc2cc(n1)-c1c(C)nn(C)c1OC[C@H]1CC[C@H](C1)CN1/C(=N/C2=O)Nc2ccc(N3CCC(N(C)C4CN(c5cc(F)c([C@H]6CCC(=O)NC6=O)c(F)c5)C4)CC3)cc21 [Example 142, (R)-3-(2,6-difluoro-4-(3-(methyl(1-((7^1R,7^3S,E)-1^1,1^3,2^6-trimethyl-3-oxo-5^2,5^3-dihydro-1^1H,5^1H-9-oxa-4-aza-5(2,1)-benzo[d]imidazola-2(2,4)-pyridina-1(4,5)-pyrazola-7(1,3)-cyclopentanacyclononaphane-5^6-yl)piperidin-4-yl)amino)azetidin-1-yl)phenyl)piperidine-2,6-dione]	102.03	1.42	0.748	87.3	97.8	4.77	7.26	80.3

The remaining lines, values ahead:

Imax (%) [1] [%]	IC50 [1] [nM]	DC50 [2] [nM]	Dmax [2] [%]	Imax (%) [3] [%]	IC50 [3] [nM]	DC50 [4] [nM]	Dmax [4] [%]	SMILES
104.78	1.4	1.91	86.9	104.33	2.32	3.08	89.1	Cc1cc2cc(n1)-c1c(C)nn(C)c1OC[C@H]1CCC(C1)CN1/C(=N/C2=O)Nc2ccc(N3CCN(C4CCN(c5cc(F)c([C@H]6CCC(=O)NC6=O)c(F)c5)CC4)[C@@H](C)C3)cc21 [Example 135, (R)-3-(2,6-difluoro-4-(4-((S)-2-methyl-4-((7^1R,7^3S,E)-1^1,1^3,2^6-trimethyl-3-oxo-5^2,5^3-dihydro-1^1H,5^1H-9-oxa-4-aza-5(2,1)-benzo[d]imidazola-2(2,4)-pyridina-1(4,5)-pyrazola-7(1,3)-cyclopentanacyclononaphane-5^6-yl)piperazin-1-yl)piperidin-1-yl)phenyl)piperidine-2,6-dione]
98.8	0.528	3.35	78.2	96.47	14.6	2.37	83.3	Cc1cc2cc(n1)-c1cnn(C)c1OC[C@H]1CC[C@H](C1)CN1/C(=N/C2=O)Nc2ccc(N3CCN(C4CCN(c5ccc(OC6CCC(=O)NC6=O)nc5C)CC4)CC3)cc21 (stereo partly shown) [Example 137, 3-((5-(4-(4-((7^1R,7^3S,E)-1^1,2^6-dimethyl-3-oxo-5^2,5^3-dihydro-1^1H,5^1H-9-oxa-4-aza-5(2,1)-benzo[d]imidazola-2(2,4)-pyridina-1(4,5)-pyrazola-7(1,3)-cyclopentanacyclononaphane-5^6-yl)piperazin-1-yl)piperidin-1-yl)-6-methylpyridin-2-yl)oxy)piperidine-2,6-dione]
101.57	1.03	1.94	85.6	96.47	6.86	3.04	93.3	COC[C@H]1CN(c2ccc3c(c2)N2C[C@@H]4CC[C@H](COc5c(c(C)nn5C)-c5cc(cc(C)n5)C(=O)/N=C/2N3)C4)CCN1C1CCN(c2ccc(OC3CCC(=O)NC3=O)cc2C)CC1 (stereo partly drawn) [Example 140, 3-(4-(4-((R)-2-(methoxymethyl)-4-((7^1R,7^3S,E)-1^1,1^3,2^6-trimethyl-3-oxo-5^2,5^3-dihydro-1^1H,5^1H-9-oxa-4-aza-5(2,1)-benzo[d]imidazola-2(2,4)-pyridina-1(4,5)-pyrazola-7(1,3)-cyclopentanacyclononaphane-5^6-yl)piperazin-1-yl)piperidin-1-yl)-3-methylphenoxy)piperidine-2,6-dione]
100.38	0.825	0.804	66.1	98.22	7.7	1.13	87.5	COC[C@H]1CN(c2ccc3c(c2)N2C[C@@H]4CC[C@H](COc5c(c(C)nn5C)-c5cc(cc(C)n5)C(=O)/N=C/2N3)C4)CCN1C1CCN(c2c(C)cc(C3CCC(=O)NC3=O)nc2C)CC1 (stereo partly drawn) [Example 141, 3-(5-(4-((R)-2-(methoxymethyl)-4-((7^1R,7^3S,E)-1^1,1^3,2^6-trimethyl-3-oxo-5^2,5^3-dihydro-1^1H,5^1H-9-oxa-4-aza-5(2,1)-benzo[d]imidazola-2(2,4)-pyridina-1(4,5)-pyrazola-7(1,3)-cyclopentanacyclononaphane-5^6-yl)piperazin-1-yl)piperidin-1-yl)-4,6-dimethylpyridin-2-yl)piperidine-2,6-dione]
